{
  "source": "patent US12441733B2",
  "about": "“Substituted 2,4-dioxotetrahydropyrimidines as intermediates in the synthesis of bruton's tyrosine kinase inhibitors” (Novartis AG, priority 2018, dated 2025)",
  "assay_type_in_all_cases": "cell-based",
  "key": {"BTK-GFP": {"target": "T1, BTK-GFP (Homo sapiens, UniProt Q06187+Q96SW2)", "T1 construct": "expressed in transfected cells; host or cells: HEK293A (Invitrogen R70507), lentiviral transduction with pLenti6-BTK-GFP-Ires-RFP, blasticidin selection", "T1 sequence (Q06187 whole entry)": "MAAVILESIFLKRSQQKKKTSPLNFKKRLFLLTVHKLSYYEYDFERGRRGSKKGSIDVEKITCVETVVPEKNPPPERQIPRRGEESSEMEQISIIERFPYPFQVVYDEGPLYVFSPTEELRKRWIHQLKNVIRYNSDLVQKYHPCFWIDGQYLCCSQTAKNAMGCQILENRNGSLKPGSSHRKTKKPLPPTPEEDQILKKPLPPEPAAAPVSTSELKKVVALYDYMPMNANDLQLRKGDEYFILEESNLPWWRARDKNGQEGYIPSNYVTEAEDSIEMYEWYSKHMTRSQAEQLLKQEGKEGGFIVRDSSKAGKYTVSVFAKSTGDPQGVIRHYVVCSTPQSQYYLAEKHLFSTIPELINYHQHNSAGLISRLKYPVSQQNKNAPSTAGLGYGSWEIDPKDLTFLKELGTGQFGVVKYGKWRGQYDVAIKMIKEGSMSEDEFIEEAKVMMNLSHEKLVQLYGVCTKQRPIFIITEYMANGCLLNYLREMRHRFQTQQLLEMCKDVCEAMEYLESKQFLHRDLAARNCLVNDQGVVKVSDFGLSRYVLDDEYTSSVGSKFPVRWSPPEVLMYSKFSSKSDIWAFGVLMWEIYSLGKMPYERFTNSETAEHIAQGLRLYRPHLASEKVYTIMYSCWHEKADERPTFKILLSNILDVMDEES", "T1 sequence (Q96SW2 whole entry)": "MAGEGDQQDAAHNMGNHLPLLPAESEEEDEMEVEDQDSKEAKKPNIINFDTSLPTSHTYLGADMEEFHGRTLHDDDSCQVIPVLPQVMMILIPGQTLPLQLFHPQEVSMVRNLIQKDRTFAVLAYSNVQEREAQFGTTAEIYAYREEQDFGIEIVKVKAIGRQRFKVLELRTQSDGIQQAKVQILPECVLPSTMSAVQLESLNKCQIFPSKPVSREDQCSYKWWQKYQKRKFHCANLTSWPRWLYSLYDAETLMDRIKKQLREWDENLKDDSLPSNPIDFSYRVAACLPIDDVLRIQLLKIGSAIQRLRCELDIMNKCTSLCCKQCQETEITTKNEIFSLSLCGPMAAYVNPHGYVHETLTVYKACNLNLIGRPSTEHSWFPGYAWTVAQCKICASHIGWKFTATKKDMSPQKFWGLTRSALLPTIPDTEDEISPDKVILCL", "T1 sequence (Q16531 whole entry partner)": "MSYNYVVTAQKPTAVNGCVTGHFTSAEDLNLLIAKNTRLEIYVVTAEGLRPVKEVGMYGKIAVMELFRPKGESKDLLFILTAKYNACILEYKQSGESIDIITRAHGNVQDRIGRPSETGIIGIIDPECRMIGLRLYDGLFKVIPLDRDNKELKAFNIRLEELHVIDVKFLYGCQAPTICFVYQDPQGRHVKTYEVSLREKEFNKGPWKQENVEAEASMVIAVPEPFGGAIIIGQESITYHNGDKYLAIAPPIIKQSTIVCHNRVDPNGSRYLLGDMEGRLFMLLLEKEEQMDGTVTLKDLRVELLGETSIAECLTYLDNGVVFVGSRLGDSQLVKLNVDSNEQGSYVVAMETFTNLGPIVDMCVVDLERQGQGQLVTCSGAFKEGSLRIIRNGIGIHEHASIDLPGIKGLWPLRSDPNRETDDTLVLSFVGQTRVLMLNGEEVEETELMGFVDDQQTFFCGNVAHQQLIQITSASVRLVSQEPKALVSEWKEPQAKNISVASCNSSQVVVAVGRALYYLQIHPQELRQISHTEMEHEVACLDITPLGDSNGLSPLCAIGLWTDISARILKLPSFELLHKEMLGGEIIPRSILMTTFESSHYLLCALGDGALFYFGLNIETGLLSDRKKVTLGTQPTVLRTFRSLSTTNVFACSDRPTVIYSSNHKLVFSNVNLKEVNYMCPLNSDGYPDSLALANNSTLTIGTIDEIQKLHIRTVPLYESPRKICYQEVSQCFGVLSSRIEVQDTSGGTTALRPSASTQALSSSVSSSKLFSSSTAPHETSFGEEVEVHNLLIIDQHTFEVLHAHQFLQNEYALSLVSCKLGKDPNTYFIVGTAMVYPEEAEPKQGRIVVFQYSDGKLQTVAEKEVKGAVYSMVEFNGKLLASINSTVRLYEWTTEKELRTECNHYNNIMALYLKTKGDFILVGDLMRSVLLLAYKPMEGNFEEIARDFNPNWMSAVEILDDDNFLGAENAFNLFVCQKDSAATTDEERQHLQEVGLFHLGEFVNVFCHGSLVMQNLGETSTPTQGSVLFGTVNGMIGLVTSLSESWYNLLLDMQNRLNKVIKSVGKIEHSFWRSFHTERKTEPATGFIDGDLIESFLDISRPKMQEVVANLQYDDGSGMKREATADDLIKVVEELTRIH", "experiment": "BTK-GFP protein abundance flow cytometry assay in HEK293A cells", "settings": "HEK293A BTK-GFP-iresRFP cells, 24 h; for DC50: GFP signal by flow cytometry, concentration at which 50% maximal degradation was observed; for BTK deg Amax: % protein remaining at the concentration at which maximum degradation is seen", "how_it_was_run": "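HEK293A cells stably expressing bicistronic BTK-GFP-IRES-RFP (C-terminal GFP tag) via lentiviral vector. Degradation read by flow cytometry as loss of GFP signal after degrader treatment. DC50 is concentration giving 50% maximal degradation; Amax is % protein remaining at maximal degradation.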"}, "OCI-LY3 cells": {"test_system": "OCI-LY3 cells", "experiment": "Resazurin cell viability (proliferation) assay in OCI-LY3 DLBCL cells", "settings": "OCI-LY3 cells (BTK independent), 72 h, 50% growth inhibition vs vehicle, read-out: OCI-LY3 Prol GI50", "how_it_was_run": "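Cells were seeded at 1×10^4 per well and dosed 3 h later: 8-point 1:4 dilutions from 10 μM (OCI-LY3), in triplicate, 72 h at 37 °C. Resazurin (13 μg/ml final) was added for the last 2 h and fluorescence read at 530/600 nm. GI50 is relative to DMSO vehicle, typically from ≥2 independent experiments.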"}, "TMD8 cells": {"test_system": "TMD8 cells", "experiment": "Resazurin cell viability (proliferation) assay in TMD8 DLBCL cells", "settings": "TMD8 cells (BTK dependent), 72 h, 50% growth inhibition vs vehicle, read-out: TMD8 Prol GI50", "how_it_was_run": "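TMD8 cells were seeded at 1×10^4 per well and treated 3 h later with compound, in an 8-point 1:4 dilution series starting at 1 μM, or DMSO, for 72 h at 37° C. Resazurin was added at 13 μg/ml final for the last 2 h, and fluorescence was read at ex 530/em 600 nm. GI50 versus vehicle was derived by curve fitting from triplicates.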"}, "IKZF3-GFP": {"target": "T2, IKZF3-GFP (Homo sapiens, UniProt Q96SW2+Q9UKT9)", "T2 construct": "expressed in transfected cells; host or cells: HEK293A (Invitrogen R70507), lentiviral transduction with pLenti6-IKZF3-GFP-Ires-RFP, blasticidin selection", "T2 sequence (Q9UKT9 whole entry)": "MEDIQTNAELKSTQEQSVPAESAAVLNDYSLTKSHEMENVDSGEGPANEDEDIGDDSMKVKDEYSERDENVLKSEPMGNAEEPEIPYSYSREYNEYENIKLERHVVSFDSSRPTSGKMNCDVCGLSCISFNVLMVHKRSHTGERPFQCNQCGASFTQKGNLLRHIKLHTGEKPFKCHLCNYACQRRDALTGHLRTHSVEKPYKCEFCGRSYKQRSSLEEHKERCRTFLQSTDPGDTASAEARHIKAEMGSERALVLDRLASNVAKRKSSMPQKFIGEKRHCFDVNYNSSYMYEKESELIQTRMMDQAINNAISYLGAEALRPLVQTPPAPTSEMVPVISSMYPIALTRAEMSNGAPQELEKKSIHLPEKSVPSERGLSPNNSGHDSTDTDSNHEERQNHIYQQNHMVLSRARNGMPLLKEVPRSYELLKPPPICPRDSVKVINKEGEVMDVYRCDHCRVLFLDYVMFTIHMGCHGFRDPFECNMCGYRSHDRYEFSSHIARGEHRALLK", "T2 sequence (Q96SW2 whole entry)": "as the sequence (Q96SW2 whole entry) above", "T2 sequence (Q16531 whole entry partner)": "as the sequence (Q16531 whole entry partner) above", "experiment": "IKZF3-GFP protein abundance flow cytometry assay in HEK293A cells", "settings": "Table 3, positive control compounds; % protein remaining at maximum degradation", "protocol": "BTK-GFP and IKZF3-GFP protein abundance flow cytometry assay in HEK293A cells:\nDegradation of BTK or IKZF3 was measured in HEK293A cells (Invitrogen R70507) expressing either BTK-GFP and RFP or IKZF3-GFP and RFP from a stably integrated bicistronic BTK-GFP-iresRFP or IKZF3-GFP-iresRFP construct, respectively. Reduction of the GFP signal measured by flow cytometry served as readout for BTK or IKZF3 degradation after degrader treatment.\nBy analogy the bicistronic pLenti6-IKZF3-GFP-iresRFP was engineered by gateway cloning of IKZF3 from a pENTR221-IKZF3(STOP-Leu) construct into the previously described pLenti6-DEST-GFP-Ires-RFP vector using the LR Clonase kit (Invitrogen 11791-019) according to the manufacturer's manual. All vectors described have been sequenced for verification.\nii) Engineering of Stably Expressing 293A BTK-GFP-Ires-RFP and IKZF3-GFP-Ires-RFP Sensor Cells\n293A BTK-GFP-Ires-RFP and IKZF3-GFP-ires-RFP sensor cells were generated by lentiviral vector transduction using the pLenti6-BTK-GFP-Ires-RFP or pLenti6-IKZF3-GFP-Ires-RFP sensor construct described before. Lentiviral particles were produced in HEK293FT cells (Invitrogen R70007) by co-transfection of 500 ng pLenti6-BTK-GFP-ires-RFP or pLenti6-IKZF3-GFP-Ires-RFP, 500 ng delta8.71 and 200 ng pVSVG diluted in 100 μl OptiMEM serum free medium (Invitrogen #11058-021) that was mixed after 5 min preincubation with 3 μl of Lipofectamine2000 (Invitrogen #11668-019) in 97 μl OptiMEM serum free medium. The mix was incubated for another 20 min at RT and then added on 1 ml of a freshly prepared suspension of HEK293FT cells in a well of a 6-well plate (concentration 1.2×10^6 cells/ml). 1 day after transfection, the medium was replaced with 1.5 ml of complete growth medium (DMEM high Glucose+10% FCS+1% L-Glutamine+1% NEAA+1% NaPyr.). 48 h post transfection supernatant containing viral transducing particles was collected and frozen at −80° C.\nTwo days before transduction with viral particles 1×10^5 HEK293A cells (Invitrogen R70507) were seeded in 2 ml growth medium in a well of a 6-well plate. Infection was performed with 90 μl of collected supernatant containing viral transducing particles in 1 ml medium including 8 μg/ml polybrene. 24 h post infection, stably transfected cells were selected with blasticidin at a concentration of 8 μg/ml.\nIii) Quantitative BTK-GFP and IKZF3-GFP Abundance Measurements\nStable HEK293A-BTK-GFP-iresRFP cells were maintained in complete growth medium (DMEM high Glucose+10% FCS+1% L-Glutamine+1% NEAA+1% NaPyr.) with passaging performed twice per week. On Day 0, HEK293A-BTK-GFP-iresRFP or HEK293A-IKZF3-GFP-iresRFP and HEK293A-iresRFP cells were seeded at 10,000 cells/well in a 96-well microtiter plate in 260 μl complete medium. On Day 1, cells were treated in duplicate with 10-point 1:3 dilution series of compound using the HP D300 Digital Dispenser (Tecan). DMSO concentrations were normalized across the plate to 0.1%. On Day 2, after 24 h of incubation at 37° C., treatment media was discarded, cells rinsed with 100 μl/well PBS and then detached using 40 μl trypsin/well for 5 min. Trypsin was neutralized with 100 μl/well PBS+20% FCS). Flow cytometry was performed on the samples using the BD FACS CANTO II (Becton Dickinson). Cell identification was then performed using forward (FSC) vs. side scatter (SSC) plots. […] Median GFP values for 5,000 single cells are used to determine BTK levels. Median GFP values from HEK293A-iresRFP are used as a background signal and thus defining 0% BTK signal. Median GFP values from DMSO treated HEK293A-BTK-GFP-iresRFP or HEK293A-IKZF3-GFP-iresRFP are used to define 100% BTK signal for subsequent DC50 curves (concentration at 50% BTK degradation)."}},
  "note": "Where two headings read alike, the source gives them in different places.",
  "data": [
    {"compound": "COc1ccc(C(=O)N2CCC(O[C@H]3CC[C@@H](Oc4ccc(-c5cc6c(-c7cc(F)cc(NC(=O)c8ccc(C(C)(C)O)cc8F)c7C)ncnc6[nH]5)cc4)CC3)CC2)cc1N1CCC(=O)NC1=O", "note": "[Compound 54, N-(3-(6-(4-(((1s,4s)-4-((1-(3-(2,4-dioxotetrahydropyrimidin-1(2H)-yl)-4-methoxybenzoyl)piperidin-4-yl)oxy)cyclohexyl)oxy)phenyl)-7H-pyrrolo[2,3-d]pyrimidin-4-yl)-5-fluoro-2-methylphenyl)-2-fluoro-4-(2-hydroxypropan-2-yl)benzamide]", "values": [
      {"measurement": "DC50", "setting": "BTK-GFP", "value": 0.0015, "unit": "µM"},
      {"measurement": "BTK deg Amax", "setting": "BTK-GFP", "value": 4.4, "unit": "%"},
      {"measurement": "GI50", "setting": "OCI-LY3 cells", "value": "> 10", "unit": "µM"},
      {"measurement": "GI50", "setting": "TMD8 cells", "value": 0.00356, "unit": "µM"}
    ]},
    {"compound": "COc1ccc(C(=O)N2CCC3(CCN(Cc4ccc(-c5cc6c(-c7cc(F)cc(NC(=O)c8ccc(C(C)(C)O)cc8F)c7C)ncnc6[nH]5)cc4)CC3)C2)cc1N1CCC(=O)NC1=O", "note": "[Compound 55, N-(3-(6-(4-((2-(3-(2,4-dioxotetrahydropyrimidin-1(2H)-yl)-4-methoxybenzoyl)-2,8-diazaspiro[4.5]decan-8-yl)methyl)phenyl)-7H-pyrrolo[2,3-d]pyrimidin-4-yl)-5-fluoro-2-methylphenyl)-2-fluoro-4-(2-hydroxypropan-2-yl)benzamide]", "values": [
      {"measurement": "DC50", "setting": "BTK-GFP", "value": "> 0.123", "unit": "µM"},
      {"measurement": "BTK deg Amax", "setting": "BTK-GFP", "value": 53.8, "unit": "%"},
      {"measurement": "GI50", "setting": "OCI-LY3 cells; Homo sapiens", "value": 7.94, "unit": "µM"},
      {"measurement": "GI50", "setting": "TMD8 cells; Homo sapiens", "value": 0.00701, "unit": "µM"}
    ]},
    {"compound": "COc1ccc(C(=O)N2CCC(O[C@H]3CC[C@H](OCc4ccc(-c5cc6c(-c7cc(F)cc(NC(=O)c8ccc(C(C)(C)O)cc8F)c7C)ncnc6[nH]5)cc4)CC3)CC2)cc1N1CCC(=O)NC1=O", "note": "[Compound 56, N-(3-(6-(4-((((1r,4r)-4-((1-(3-(2,4-dioxotetrahydropyrimidin-1(2H)-yl)-4-methoxybenzoyl)piperidin-4-yl)oxy)cyclohexyl)oxy)methyl)phenyl)-7H-pyrrolo[2,3-d]pyrimidin-4-yl)-5-fluoro-2-methylphenyl)-2-fluoro-4-(2-hydroxypropan-2-yl)benzamide]", "values": [
      {"measurement": "DC50", "setting": "BTK-GFP", "value": 0.004, "unit": "µM"},
      {"measurement": "BTK deg Amax", "setting": "BTK-GFP", "value": 4.4, "unit": "%"},
      {"measurement": "GI50", "setting": "OCI-LY3 cells", "value": 6.33, "unit": "µM"},
      {"measurement": "GI50", "setting": "TMD8 cells", "value": 0.0154, "unit": "µM"}
    ]},
    {"compound": "Cc1c(NC(=O)c2ccc(C(C)(C)O)cc2F)cc(F)cc1-c1ncnc2[nH]c(-c3ccc(CN4CCC5(CCN(CCCNC(=O)c6ccc(Cl)c(N7CCC(=O)NC7=O)c6)CC5)CC4)cc3)cc12", "note": "[Compound 57, N-(3-(6-(4-((9-(3-(4-chloro-3-(2,4-dioxotetrahydropyrimidin-1(2H)-yl)benzamido)propyl)-3,9-diazaspiro[5.5]undecan-3-yl)methyl)phenyl)-7H-pyrrolo[2,3-d]pyrimidin-4-yl)-5-fluoro-2-methylphenyl)-2-fluoro-4-(2-hydroxypropan-2-yl)benzamide]", "values": [
      {"measurement": "DC50", "setting": "BTK-GFP", "value": 0.0144, "unit": "µM"},
      {"measurement": "BTK deg Amax", "setting": "BTK-GFP", "value": 8.9, "unit": "%"},
      {"measurement": "GI50", "setting": "OCI-LY3 cells; Homo sapiens", "value": 4.4, "unit": "µM"},
      {"measurement": "GI50", "setting": "TMD8 cells; Homo sapiens", "value": 0.00116, "unit": "µM"}
    ]},
    {"compound": "COc1ccc(C(=O)N2CCC(OCCN3CCC(Oc4ccc(-c5cc6c(-c7cc(F)cc(NC(=O)c8ccc(C(C)(C)O)cc8F)c7C)ncnc6[nH]5)cc4)CC3)CC2)cc1N1CCC(=O)NC1=O", "note": "[Compound 58, N-(3-(6-(4-((1-(2-((1-(3-(2,4-dioxotetrahydropyrimidin-1(2H)-yl)-4-methoxybenzoyl)piperidin-4-yl)oxy)ethyl)piperidin-4-yl)oxy)phenyl)-7H-pyrrolo[2,3-d]pyrimidin-4-yl)-5-fluoro-2-methylphenyl)-2-fluoro-4-(2-hydroxypropan-2-yl)benzamide]", "values": [
      {"measurement": "DC50", "setting": "BTK-GFP", "value": 0.0009, "unit": "µM"},
      {"measurement": "BTK deg Amax", "setting": "BTK-GFP", "value": 1.8, "unit": "%"},
      {"measurement": "GI50", "setting": "OCI-LY3 cells; Homo sapiens", "value": 4.92, "unit": "µM"},
      {"measurement": "GI50", "setting": "TMD8 cells; Homo sapiens", "value": 0.00056, "unit": "µM"}
    ]},
    {"compound": "Nc1cccc2c1C(=O)N(C1CCC(=O)NC1=O)C2=O", "note": "(stereo not drawn) [Pomalidomide, reference compound]", "values": [
      {"measurement": "IKZF deg Amax", "setting": "IKZF3-GFP", "value": 13.2, "unit": "%"}
    ]}
  ]
}
